In patent US20250195521A1 (Revolution Medicines, Inc., priority 2020, published 2025):
Like-named read-outs stand apart in the source and are kept apart here.

Columns and labels:
[1] = tested on: Capan-1 cells (K-Ras G12V); assay: CellTiter-Glo cell viability, Capan-1; type: cell-based, human; conditions: K-Ras G12V, 5-day treatment, read-out: Capan-1 Cell Viability IC50
Method in brief: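 Endpoint: CellTiter-Glo luminescence on day 5, following ~30 min at room temperature. Data as (sample/mean DMSO)×100, four-parameter logistic fit.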

[2] = target: K-Ras G12C(GMP-PNP) binding to BRAF RBD (Homo sapiens (Human), UniProt P01116+P62937, G12C); assay: Disruption of BRAF RBD interaction with K-Ras (FRET / MOA assay), K-Ras G12C; type: biochemical; conditions: read-out: KRAS G12C FRET IC50
Method in brief: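 Compounds promote ternary complex of nucleotide-loaded Ras (here K-Ras G12C·GMP-PNP; other Ras mutants substituted) with cyclophilin A, disrupting BRAF RBD binding. 10-point 3-fold series from 30 μM final, 3 h at 25 °C, then anti-His Eu (10 nM) and anti-GST APC (50 nM) for 1.5 h. TR-FRET ratio decrease versus DMSO gave IC50.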

KRAS G13C = KRAS G13C (Homo sapiens (Human), UniProt P01116+P62937, G13C); assay: Ras-Raf disruption/FRET/MOA assay (BRAF RBD, Cyclophilin A); type: biochemical; conditions: read-out: KRAS G13C FRET IC50
Method in brief: (§1)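 First, 25 μM Cyclophilin A, 12.5 nM His6-Ras-GMPPNP and 50 nM GST-BRAF RBD are mixed with diluted compound at pH 7.3. Next, 3 h at 25° C. Then 10 nM anti-His Eu-W1024 plus 50 nM anti-GST allophycocyanin for 1.5 h before TR-FRET reading.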

KRAS G13D = KRAS G13D (Homo sapiens (Human), UniProt P01116+P62937, G13D); assay: as above; type: biochemical; conditions: read-out: KRAS G13D FRET data IC50
Method in brief: as §1

KRAS WT = KRAS WT (Homo sapiens (Human), UniProt P01116+P62937); assay: as above; type: biochemical; conditions: read-out: KRAS WT FRET data IC50
Method in brief: as §1

KRAS G12C = KRAS G12C (Homo sapiens (Human), UniProt P01116+P62937, G12C); assay: as above; type: biochemical; conditions: read-out: KRAS G12C FRET IC50
Method in brief: as §1

KRAS G12V = KRAS G12V (Homo sapiens (Human), UniProt P01116+P62937, G12V); assay: as above; type: biochemical; conditions: read-out: KRAS G12V FRET IC50
Method in brief: as §1

KRAS G12D = KRAS G12D (Homo sapiens (Human), UniProt P01116+P62937, G12D); assay: as above; type: biochemical; conditions: read-out: KRAS G12D FRET IC50
Method in brief: as §1

K-Ras G12C(GMP-PNP) binding to BRAF RBD, sequence (P01116 other isoform, or with tags, fused parts or gaps G12C): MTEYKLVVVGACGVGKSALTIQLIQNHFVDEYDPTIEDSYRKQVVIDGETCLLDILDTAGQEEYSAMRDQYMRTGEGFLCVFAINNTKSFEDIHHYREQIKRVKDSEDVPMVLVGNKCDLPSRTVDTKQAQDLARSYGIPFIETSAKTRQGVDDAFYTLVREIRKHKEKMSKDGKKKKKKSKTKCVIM
K-Ras G12C(GMP-PNP) binding to BRAF RBD, sequence (P62937 whole entry): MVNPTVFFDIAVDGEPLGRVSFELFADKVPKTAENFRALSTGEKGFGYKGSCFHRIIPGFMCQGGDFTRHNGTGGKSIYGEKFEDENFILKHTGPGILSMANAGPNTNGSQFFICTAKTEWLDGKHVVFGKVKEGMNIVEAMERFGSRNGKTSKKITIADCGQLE
KRAS G12D, sequence (P01116 other isoform, or with tags, fused parts or gaps G12D): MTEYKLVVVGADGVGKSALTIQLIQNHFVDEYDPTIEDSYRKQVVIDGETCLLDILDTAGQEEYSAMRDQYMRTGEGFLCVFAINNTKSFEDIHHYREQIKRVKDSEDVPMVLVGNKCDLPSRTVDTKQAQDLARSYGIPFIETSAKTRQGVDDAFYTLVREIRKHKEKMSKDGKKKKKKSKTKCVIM
KRAS G12D, sequence (P62937 whole entry): as the sequence (P62937 whole entry) above
KRAS WT, sequence (P01116 other isoform, or with tags, fused parts or gaps): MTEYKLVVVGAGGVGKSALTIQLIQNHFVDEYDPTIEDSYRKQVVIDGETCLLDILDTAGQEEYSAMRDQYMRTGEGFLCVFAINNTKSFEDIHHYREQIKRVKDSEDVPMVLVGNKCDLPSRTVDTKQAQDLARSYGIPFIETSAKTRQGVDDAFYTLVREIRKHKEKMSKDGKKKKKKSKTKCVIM
KRAS WT, sequence (P62937 whole entry): as the sequence (P62937 whole entry) above
KRAS G13C, sequence (P01116 other isoform, or with tags, fused parts or gaps G13C): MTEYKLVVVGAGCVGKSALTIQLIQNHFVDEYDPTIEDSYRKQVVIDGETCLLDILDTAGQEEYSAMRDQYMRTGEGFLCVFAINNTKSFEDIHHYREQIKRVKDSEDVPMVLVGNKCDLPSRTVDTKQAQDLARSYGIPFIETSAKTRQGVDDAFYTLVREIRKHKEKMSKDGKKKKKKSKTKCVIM
KRAS G13C, sequence (P62937 whole entry): as the sequence (P62937 whole entry) above
KRAS G12C, sequence (P01116-2 other isoform, or with tags, fused parts or gaps G12C): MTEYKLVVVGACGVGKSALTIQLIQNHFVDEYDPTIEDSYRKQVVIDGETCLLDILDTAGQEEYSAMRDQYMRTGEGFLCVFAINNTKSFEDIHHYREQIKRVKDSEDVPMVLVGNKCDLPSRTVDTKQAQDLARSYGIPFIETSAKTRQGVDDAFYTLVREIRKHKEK
KRAS G12C, sequence (P62937 whole entry): as the sequence (P62937 whole entry) above
KRAS G13D, sequence (P01116 other isoform, or with tags, fused parts or gaps G13D): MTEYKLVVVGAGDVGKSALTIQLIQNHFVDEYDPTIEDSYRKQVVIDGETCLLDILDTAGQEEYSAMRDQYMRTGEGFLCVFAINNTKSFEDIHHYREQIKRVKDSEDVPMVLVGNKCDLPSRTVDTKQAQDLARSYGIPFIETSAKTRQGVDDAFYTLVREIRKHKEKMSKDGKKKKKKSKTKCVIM
KRAS G13D, sequence (P62937 whole entry): as the sequence (P62937 whole entry) above
KRAS G12V, sequence (P01116 other isoform, or with tags, fused parts or gaps G12V): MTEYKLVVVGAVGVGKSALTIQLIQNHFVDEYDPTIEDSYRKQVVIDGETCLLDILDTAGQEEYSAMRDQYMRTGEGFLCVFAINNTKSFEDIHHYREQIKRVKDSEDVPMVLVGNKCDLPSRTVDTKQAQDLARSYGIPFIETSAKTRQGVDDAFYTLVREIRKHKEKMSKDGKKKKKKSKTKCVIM
KRAS G12V, sequence (P62937 whole entry): as the sequence (P62937 whole entry) above

Row | SMILES | IC50 ([1]; Homo sapiens, CAPAN-1, 120 h) | IC50 [2] | IC50 (KRAS G13C) | IC50 (KRAS G13D) | IC50 (KRAS WT) | IC50 (KRAS G12C) | IC50 (KRAS G12V) | IC50 (KRAS G12D) | IC50 [1]
1 | CCn1c(-c2cccnc2[C@H](C)OC)c2c3cc(ccc31)-c1csc(n1)C[C@H](NC(=O)[C@H](C(C)C)N1CCCN(C)C1=O)C(=O)N1CCC[C@H](N1)C(=O)OCC(C)(C)C2 [Compound A317] | 1000 to 10000 nM | < 10 nM | 1000 to 10000 nM | 1000 to 10000 nM | 1000 to 10000 nM | 1000 to 10000 nM | 1000 to 10000 nM | > 10000 nM | –
2 | CCN(CC)C(=O)N(C)[C@H](C(=O)N[C@H]1Cc2nc(cs2)-c2ccc3c(c2)c(c(-c2cccnc2[C@H](C)OC)n3CC)CC(C)(C)COC(=O)[C@@H]2CCCN(N2)C1=O)C(C)C [Compound A351] | 100 to 1000 nM | < 10 nM | 10 to 100 nM | 100 to 1000 nM | 10 to 100 nM | 10 to 100 nM | 100 to 1000 nM | 100 to 1000 nM | –
3 | CCn1c(-c2cc(N3CCN(C)CC3)cnc2[C@H](C)OC)c2c3cc(ccc31)-c1nc(co1)C[C@H](NC(=O)[C@H]1[C@H](C)[C@@H]1C)C(=O)N1CCC[C@H](N1)C(=O)OCC(C)(C)C2 [Compound A391, (1r,2R,3S)—N-((6^3S,4S,Z)-1^1-ethyl-1^2-(2-((S)-1-methoxyethyl)-5-(4-methylpiperazin-1-yl)pyridin-3-yl)-10,10-dimethyl-5,7-dioxo-6^1,6^2,6^3,6^4,6^5,6^6-hexahydro-1^1H-8-oxa-2 (2,4)-oxazola-1 (5,3)-indola-6 (1,3)-pyridazinacycloundecaphane-4-yl)-2,3-dimethylcyclopropane-1-carboxamide] | – | < 10 nM | 10 to 100 nM | – | – | 10 to 100 nM | 10 to 100 nM | 10 to 100 nM | 1000 to 10000 nM
4 | CCn1c(-c2cccnc2[C@H](C)OC)c2c3cc(ccc31)-c1cc(O)cc(c1)C[C@H](NC(=O)[C@H](C(C)C)N(C)C(=O)[C@@H]1CCCC[C@@H]1N)C(=O)N1CCC[C@H](N1)C(=O)OCC(C)(C)C2 [Compound A395] | 100 to 1000 nM | 100 to 1000 nM | 10 to 100 nM | 10 to 100 nM | 10 to 100 nM | 10 to 100 nM | 100 to 1000 nM | 10 to 100 nM | –
5 | CCn1c(-c2cccnc2[C@H](C)OC)c2c3cc(ccc31)-c1csc(n1)C[C@H](NC(=O)[C@H](C(C)C)N(C)C(=O)N1CCOC[C@@H]1C)C(=O)N1CCC[C@H](N1)C(=O)OCC(C)(C)C2 [Compound A403] | 10 to 100 nM | < 10 nM | 100 to 1000 nM | 100 to 1000 nM | 100 to 1000 nM | 100 to 1000 nM | 100 to 1000 nM | 1000 to 10000 nM | –
6 | CCn1c(-c2cccnc2[C@H](C)OC)c2c3cc(ccc31)-c1cc(O)cc(c1)C[C@H](NC(=O)[C@H](C(C)C)N(C)C(=O)C1CN3CCCN1CC3)C(=O)N1CCC[C@H](N1)C(=O)OCC(C)(C)C2 (stereo partly shown) [Compound A404] | > 10000 nM | 100 to 1000 nM | 100 to 1000 nM | 100 to 1000 nM | 100 to 1000 nM | 100 to 1000 nM | 1000 to 10000 nM | 100 to 1000 nM | –
7 | CCn1c(-c2cccnc2[C@H](C)OC)c2c3cc(ccc31)-c1cc(O)cc(c1)C[C@H](NC(=O)[C@H](C(C)C)N(C)C(=O)C13CCC(CO1)C3)C(=O)N1CCC[C@H](N1)C(=O)OCC(C)(C)C2 [Compound A411] | – | < 10 nM | 100 to 1000 nM | – | – | 10 to 100 nM | 100 to 1000 nM | 100 to 1000 nM | 100 to 1000 nM
8 | CCn1c(-c2cccnc2[C@H](C)OC)c2c3cc(ccc31)-c1cc(O)cc(c1)C[C@H](NC(=O)[C@H](C(C)C)N(C)C(=O)[C@@H]1[C@H]3CC[C@H](C3)[C@@H]1N)C(=O)N1CCC[C@H](N1)C(=O)OCC(C)(C)C2 [Compound A417] | 1000 to 10000 nM | 10 to 100 nM | 100 to 1000 nM | 100 to 1000 nM | 100 to 1000 nM | 100 to 1000 nM | 1000 to 10000 nM | 100 to 1000 nM | –
9 | CCn1c(-c2cccnc2[C@H](C)OC)c2c3cc(ccc31)-c1cc(O)cc(c1)C[C@H](NC(=O)[C@H](C(C)C)N(C)C(=O)[C@H]1OCC[C@H]1c1ccccc1)C(=O)N1CCC[C@H](N1)C(=O)OCC(C)(C)C2 [Compound A425] | – | < 10 nM | 100 to 1000 nM | 1000 to 10000 nM | 1000 to 10000 nM | 100 to 1000 nM | 100 to 1000 nM | 1000 to 10000 nM | –
